Several values for one entry are separate records, joined by “and”; a condition that tells them apart may be missing. Identical values can stand only once. Values belong to the compound of their own block, whether it stands above or below them.
Assay: solvent given as SMILES

absorption maximum (in ClCCl): 518 nm
Structure (SMILES): CCCCCCOc1cc(/C=C/c2cc(OCCCCCC)c(/C=C/c3cc(OCCCCCC)c(C=C(C#N)C#N)cc3OCCCCCC)cc2OCCCCCC)c(OCCCCCC)cc1C=C(C#N)C#N

absorption maximum (in ClCCl): 554 nm
Structure (SMILES): CC1=C(I)C(C)=[N+]2C1=C(c1c(-c3ccccn3)nc3ccccn13)c1c(C)c(I)c(C)n1[B-]2(F)F

absorption maximum (in CC#N): 555 nm | absorption maximum (in CCO): 541 nm | absorption maximum (in CN(C)C=O): 560 nm | absorption maximum (in O): 552 nm
Structure (SMILES): CCOC(=O)c1ccccc1-c1c2ccc(=[N+](CC)CC)cc-2oc2cc(N(CC)CC)ccc12

absorption maximum (in C1CCOC1): 352 nm
Structure (SMILES): c1ccc(-n2c(-c3ccccc3-n3c4ccccc4c4ccccc43)nc3ccccc32)cc1

Structure (SMILES): CCCCCCOc1ccc(C#Cc2ccc(C#CC#Cc3ccc(C#Cc4ccc(OCCCCCC)c(OCCCCCC)c4)c4nsnc34)c3nsnc23)cc1OCCCCCC
absorption maximum (in CN(C)C=O): 468 nm | absorption maximum (in COc1ccccc1): 472 nm | absorption maximum (in Cc1ccccc1): 470 nm | absorption maximum (in ClC(Cl)Cl): 472 nm | absorption maximum (in ClCCCl): 471 nm | absorption maximum (in ClCCl): 469 nm

absorption maximum (in ClC(Cl)Cl): 634 nm
Structure (SMILES): F[B-]1(F)n2c(cc3ccc4ccccc4c32)C(c2ccc(I)cc2)=C2C=C3CCc4ccccc4C3=[N+]21

absorption maximum (in ClCCl): 352 nm
Structure (SMILES): COc1cc(/C=C/c2ncc(-c3ccncc3)o2)cc(OC)c1OC

absorption maximum (in CO): 369 nm
Structure (SMILES): Brc1cnc(-c2ccc(N(c3ccccc3)c3ccccc3)cc2)s1

absorption maximum (in C1CCOC1): 400 nm
Structure (SMILES): CC(C)(C)/C=C1\C=C(c2ccccc2)C=C1c1ccccc1

absorption maximum (in ClCCl): 622 nm
Structure (SMILES): CC(C)c1cccc(C(C)C)c1N1C(=O)c2ccc3c(-c4ccc(C(=O)O)cc4)c4c5ccc6c7c(ccc(c(-c8ccc(C(=O)O)cc8)c4c4ccc(c2c34)C1=O)c75)C(=O)N(c1c(C(C)C)cccc1C(C)C)C6=O

absorption maximum (in C1CCOC1): 368 nm | absorption maximum (in CC#N): 369 nm | absorption maximum (in CCCCCC): 362 nm
Structure (SMILES): CC1=N/C(=C\c2ccc(C#N)c(N(C)C)c2)C(=O)N1C

absorption maximum (in ClCCl): 368 nm and 381 nm
Structure (SMILES): O=C(c1ccc2c3c(sc2c1)-c1ccccc1P3(=O)c1ccccc1)c1c(F)c(F)c(F)c(F)c1F (configuration not stated)

absorption maximum (in ClC(Cl)Cl): 723 nm
Structure (SMILES): COc1ccc(-c2cc3c(o2)=CC2=C(C(F)(F)F)c4cc5oc(-c6ccc(OC)cc6)cc5n4[B-](F)(F)[N+]=32)cc1

Structure (SMILES): CN(C)c1ccc(C2=Cc3c4ccccc4c4ccccc4[n+]3[B-](F)(F)O2)cc1
absorption maximum (in C1CCOC1): 478 nm | absorption maximum (in C1COCCO1): 477 nm | absorption maximum (in CC1CCCCC1): 474 nm | absorption maximum (in CC#N): 476 nm | absorption maximum (in CCOC(C)=O): 475 nm | absorption maximum (in CCOCC): 472 nm | absorption maximum (in CN(C)C=O): 484 nm | absorption maximum (in CO): 475 nm | absorption maximum (in COC(C)=O): 477 nm | absorption maximum (in ClC(Cl)Cl): 483 nm

Structure (SMILES): N#CC(C#N)=C(/C=C/c1ccc(N(c2ccccc2)c2ccccc2)cc1)c1ccc2c3c(cccc13)CC2
absorption maximum (in C1CCOC1): 485 nm | absorption maximum (in CC#N): 486 nm | absorption maximum (in CC(C)=O): 485 nm | absorption maximum (in CCOC(C)=O): 482 nm | absorption maximum (in CN(C)C=O): 493 nm | absorption maximum (in CO): 490 nm | absorption maximum (in Cc1ccccc1): 493 nm | absorption maximum (in ClC(Cl)Cl): 502 nm

Structure (SMILES): O=C1c2ccc3c4ccc5c6c(ccc(c7ccc(c2c37)C(=O)N1c1ccncc1)c64)C(=O)N(c1ccncc1)C5=O
absorption maximum (in C1CCOC1): 522 nm | absorption maximum (in C1COCCO1): 525 nm | absorption maximum (in CC(C)=O): 519 nm | absorption maximum (in CC(C)O): 525 nm | absorption maximum (in CCCCO): 525 nm | absorption maximum (in CCO): 524 nm | absorption maximum (in CCOC(C)=O): 519 nm | absorption maximum (in CN(C)C=O): 524 nm | absorption maximum (in CO): 525 nm | absorption maximum (in CS(C)=O): 528 nm | absorption maximum (in ClC(Cl)(Cl)Cl): 524 nm | absorption maximum (in ClC(Cl)Cl): 530 nm

absorption maximum (in ClC(Cl)Cl): 295 nm
Structure (SMILES): O=C1OC(=O)[C@H]2[C@@H]1[C@@H]1C[C@H]2c2c1c(-c1ccccc1)c1ccccc1c2-c1ccccc1

absorption maximum (in ClC(Cl)Cl): 608 nm
Structure (SMILES): CN1C(=CC2=C([O-])C(=Cc3oc4ccccc4[n+]3C)C2=O)C(C)(C)c2ccccc21

absorption maximum (in ClCCl): 654 nm
Structure (SMILES): CC(C)[Si](C#Cc1c2cc3ccccc3cc2c(C#Cc2ccc(Br)cc2)c2cc3ccccc3cc12)(C(C)C)C(C)C

absorption maximum (in CS(C)=O): 498 nm | absorption maximum (in ClCCl): 494 nm
Structure (SMILES): CCN(CC)c1ccc2c(c1)oc(=O)c1c(=O)oc3cc([N+](=O)[O-])ccc3c12

absorption maximum (in ClCCl): 324 nm
Structure (SMILES): C[SiH]1c2ccccc2-c2cc3c(cc21)-c1ccccc1[SiH]3C (configuration not stated)

absorption maximum (in C1CCOC1): 369 nm | absorption maximum (in CC#N): 364 nm | absorption maximum (in CN(C)C=O): 369 nm | absorption maximum (in ClC(Cl)Cl): 371 nm | absorption maximum (in c1ccccc1): 371 nm
Structure (SMILES): COc1ccc(C#Cc2ccc(C#Cc3ccc(C#Cc4ccccc4C#N)cc3C#N)cc2C#N)cc1

absorption maximum (in ClCCl): 444 nm
Structure (SMILES): COc1ccc(/C=C/C2=CC(c3ccccc3)=[O+][B-](F)(F)O2)cc1

absorption maximum (in CC#N): 360 nm | absorption maximum (in CO): 364 nm | absorption maximum (in CS(C)=O): 364 nm | absorption maximum (in ClC(Cl)Cl): 365 nm
Structure (SMILES): O=C1C=CC2=Cc3ccccc3B(O)N12

absorption maximum (in ClCCl): 370 nm
Structure (SMILES): COc1cccc2cc(C)c3c4ccccc4n(C)c3c12

Structure (SMILES): CCCCC(CC)CN1C(=O)c2cccc3c(C#Cc4ccc(N(c5ccccc5)c5ccc(C#Cc6ccc7c8c(cccc68)C(=O)N(CC(CC)CCCC)C7=O)cc5)cc4)ccc(c23)C1=O (configuration not stated)
absorption maximum (in C1CCCCC1): 453 nm | absorption maximum (in C1CCOC1): 451 nm | absorption maximum (in CC#N): 456 nm | absorption maximum (in Cc1ccccc1): 452 nm | absorption maximum (in ClC(Cl)Cl): 466 nm

absorption maximum (in CC#N): 298 nm
Structure (SMILES): Cc1sc(Cl)cc1-c1nc(-c2ccccc2)[nH]c1-c1cc(Cl)sc1C

absorption maximum (in CC#N): 255 nm
Structure (SMILES): Cc1cn(C(F)(F)F)c(=O)[nH]c1=O

absorption maximum (in CC1CCCCC1): 307.12 nm | absorption maximum (in CC#N): 302.86 nm | absorption maximum (in CO): 306.08 nm
Structure (SMILES): COC(=O)C(Cc1ccc2oc(-c3ccncc3)nc2c1)NC(=O)OC(C)(C)C (configuration not stated)

Structure (SMILES): CCCCOC(=O)c1cc(Cl)c2c3c(Cl)cc4c5c(cc(Cl)c(c6c(Oc7ccc(C(=O)OC)cc7)cc(C(=O)OCCCC)c1c26)c53)C(=O)N(c1c(C(C)C)cccc1C(C)C)C4=O
absorption maximum (in Cc1ccccc1): 507 nm

absorption maximum (in O): 274 nm
Structure (SMILES): Nc1nc2c(ncn2[C@H]2C[C@H](O)[C@@H](CO)O2)c(=O)[nH]1

absorption maximum (in C1CCOC1): 347.38 nm
Structure (SMILES): COC(=O)c1ccc(C#Cc2c3c(c4c(-c5ccccc5)c(-c5ccccc5)c(-c5ccccc5)c(-c5ccccc5)c4c2-c2ccc(C(=O)OC)cc2)CC(C(=O)OC)(C(=O)OC)C3)cc1

absorption maximum (in ClCCl): 386 nm
Structure (SMILES): FC(F)(F)c1ccccc1B1c2ccccc2Nc2ccccc21

absorption maximum (in CCCCCCC): 381 nm
Structure (SMILES): c1ccc2c3c(ccc2c1)-c1cc2ccccc2c2cccc-3c12

absorption maximum (in CS(C)=O): 480 nm | absorption maximum (in ClCCl): 447 nm
Structure (SMILES): O=c1oc2ccccc2c2c1c(=O)oc1c3ccccc3cc(O)c12

absorption maximum (in CO): 514.14 nm
Structure (SMILES): Nc1ccc2c3c(cccc13)C(=O)c1ccccc1-2

absorption maximum (in C1CCCCC1): 570.5 nm | absorption maximum (in CCOC(C)=O): 575 nm
Structure (SMILES): CC1=[N+]2C(=C(Oc3cc(C)c4c(c3)CC[C@@](C)(CCC[C@H](C)CCC[C@H](C)CCCC(C)C)O4)c3ccc(C)n3[B-]2(F)F)C=C1c1cc2n(c1)[B-](F)(F)[N+]1=CC=CC1=C2c1c(C)cc(C)cc1C

absorption maximum (in ClCCl): 598 nm
Structure (SMILES): c1ccc(CSc2c3ccc(=[N+]4CCCCC4)cc-3oc3cc(N4CCCCC4)ccc23)cc1

absorption maximum (in CS(C)=O): 376 nm
Structure (SMILES): Cc1ccc(N/C=C/C=[NH+]c2ccc(C)cc2)cc1

absorption maximum (in ClCCl): 363 nm
Structure (SMILES): Cc1cc(C)c(-c2cc(-c3c(C)cc(C)cc3C)c3ccc4c(-c5c(C)cc(C)cc5C)cc(-c5c(C)cc(C)cc5C)c5ccc2c3c54)c(C)c1

Structure (SMILES): CC(C)[Si]1(C(C)C)c2cc(C=O)ccc2-c2ccc(N(c3ccccc3)c3ccccc3)cc21
absorption maximum (in C1CCCCC1): 403 nm | absorption maximum (in CC#N): 392 nm | absorption maximum (in CCO): 396 nm | absorption maximum (in CCOCC): 393 nm | absorption maximum (in CS(C)=O): 398 nm | absorption maximum (in ClCCl): 401 nm | absorption maximum (in c1ccccc1): 398 nm

Structure (SMILES): COc1ccc(C2=C(Br)C(c3ccccc3)=[N+]3C2=Nc2c(-c4ccc(OC)cc4)c(Br)c(-c4ccccc4)n2[B-]3(F)F)cc1
absorption maximum (in Cc1ccccc1): 654 nm

absorption maximum (in CC#N): 334 nm | absorption maximum (in ClCCl): 353 nm
Structure (SMILES): O=c1c2ccccc2nc2n1[B-](F)(F)[n+]1ccccc1-2

absorption maximum (in ClCCl): 291 nm
Structure (SMILES): c1ccc(-c2ccc(-c3cc(-c4ccccn4)nc(-c4ccccn4)c3)cc2)cc1

absorption maximum (in C1CCCCC1): 348 nm | absorption maximum (in C1COCCO1): 358 nm | absorption maximum (in CC#N): 354 nm | absorption maximum (in CN(C)C=O): 340 nm | absorption maximum (in CO): 355 nm | absorption maximum (in O): 355 nm | absorption maximum (in OCC(O)CO): 367 nm | absorption maximum (in OCCO): 361 nm
Structure (SMILES): COc1cc(/C=C2/SC(=O)NC2=O)ccc1O

absorption maximum (in CCCCCC): 542 nm
Structure (SMILES): CC(C)[Si](C#Cc1c2cc3ccccc3cc2c(C#C[Si](C(C)C)(C(C)C)C(C)C)c2nc3c(nc12)C1c2ccccc2C3c2ccccc21)(C(C)C)C(C)C

absorption maximum (in ClC(Cl)Cl): 634 nm
Structure (SMILES): F[B-]1(F)n2c(cc3c2-c2ccccc2CC3)C(c2ccc(I)cc2)=C2C=C3CCc4ccccc4C3=[N+]21

absorption maximum (in CO): 489 nm
Structure (SMILES): C(=C\c1c[nH]c2ccccc12)/c1cc[n+]2ccc(/C=C/c3c[nH]c4ccccc34)cc2c1

absorption maximum (in ClC(Cl)Cl): 330 nm
Structure (SMILES): O=c1oc2ccccc2cc1-c1cccc(-c2cc3ccccc3oc2=O)c1

Structure (SMILES): CC1=[N+]2C(=C(c3ccc(N4CCOCC4)cc3)c3ccc(C)n3[B-]2(F)F)C=C1
absorption maximum (in C1CCCCC1): 509 nm | absorption maximum (in C1CCOC1): 507 nm | absorption maximum (in CC#N): 504 nm and 505 nm | absorption maximum (in CC(=O)C(C)(C)C): 506 nm | absorption maximum (in CC(C)=O): 505 nm | absorption maximum (in CCCCCC): 508 nm | absorption maximum (in CCOC(C)=O): 506 nm | absorption maximum (in CO): 505 nm | absorption maximum (in Cc1ccccc1): 511 nm | absorption maximum (in ClC(Cl)Cl): 511 nm

absorption maximum (in O): 430 nm
Structure (SMILES): CC(C)c1cc(N(C)C)c(C#N)c2c1-c1cccc3cccc-2c13

absorption maximum (in C1CCOC1): 340 nm
Structure (SMILES): O=C(c1ccc(C(=C(c2ccccc2)c2ccccc2)c2ccccc2)cc1)c1ccc(-n2c3ccccc3c3ccccc32)cc1

absorption maximum (in ClCCl): 361 nm | absorption maximum (in O): 354 nm
Structure (SMILES): Oc1cc(-c2ccco2)ccc1-c1nc2ccccc2s1

absorption maximum (in CC#N): 418 nm | absorption maximum (in ClCCl): 420 nm
Structure (SMILES): COC(=O)c1cc(=O)n(C)c2cc(-c3ccc(N4CCN(C)CC4)cc3)sc12

Source: the Deep4Chem optical property database
